SMILES strings stand for the structures. ≈ marks a conversion by molar mass, not a printed value. Like-named read-outs stand apart in the source and are kept apart here.

Here are results for seven compounds from patent US5501850A, “Use of benzimidazole derivatives as light protection filters” (Merck Patent Gesellschaft mit beschrankter Haftung, priority 1992, dated 1996).

The conditions of data set [1]: 280-320 nm; cited from earlier work.
The conditions of data set [2]: cited from earlier work.
Data set [3] is described as follows: UV spectra measured in a UV spectrometer (Perkin-Elmer), path length one centimeter. The settings on record: ethanol, c=1 mg/100 ml. The class given is physicochemical. As to the method: The UV spectra were measured in a UV spectrometer from Perkin-Elmer at a path length of one centimeter.
A further data set can be described thus: Solubility. The class given is physicochemical. The settings on record: organic solvent or mixture.

`O=S(=O)(O)c1ccc2[nH]c(-c3ccccc3)nc2c1` [EUSOLEX® 232]: in data set [1], the “filter quality in the UVB range” value is recorded as “good filters”.

With `CC(C)c1ccc(C(=O)CC(=O)c2ccccc2)cc1` [EUSOLEX® 8020], in data set [2], the “stability when exposed to UV irradiation” value was “do not have an unlimited stability”.

Turning to `Cc1ccc(C=C2C(=O)C3(C)CCC2C3(C)C)cc1` (stereo not shown) [EUSOLEX® 6300], the “filter quality in the UVB range” value in data set [1] is recorded as “good filters”.

With `COc1ccc(-c2nc3ccccc3[nH]2)c(OC)c1OC` [Example 2a, 2-(2',3',4'-Trimethoxy)phenylbenzimidazole], in data set [3], the “E at λmax1” value turned out to be 0.76, the “E at λmax2” value is on record as 0.42, the λmax1 is reported as 309 nm and the λmax2 came to 323 nm.

In general, solubility refers to how much of the substance goes into solution per volume. Take `CCCCC(CC)COc1c(OC)ccc(-c2nc3ccccc3[nH]2)c1OC` (stereo not shown) [Example 2]: the solubility in “Solubility” (isopropanol, read-out: Solubility in Isopropanol) was 640 mg/mL (≈ 1670 mM). Also, the solubility in the data set “Solubility” (miglyol, read-out: Solubility in Miglyol) is 590 mg/mL (≈ 1540 mM). The solubility in “Solubility” (paraffin, read-out: Solubility in Paraffin) was found to be 57 mg/mL (≈ 149 mM). In data set [3], the “E at λmax1” value came out at 0.51, the “E at λmax2” value is listed as 0.45, the λmax1 is reported as 297 nm and the λmax2 was determined as 308 nm.

As for `CCCCC(CC)COc1ccc(OCC(CC)CCCC)c(-c2nc3ccccc3[nH]2)c1` (stereo not shown) [Example 1, 2-2',5'-Di(2-ethylhexyloxy)phenyl!benzimidazole], in data set [3], the “E at λmax1” value worked out at 0.34, the “E at λmax2” value worked out at 0.30, the λmax1 was 303 nm and the λmax2 is given as 328 nm.

As for `COc1ccc(C(=O)CC(=O)c2ccc(C(C)(C)C)cc2)cc1` [PARSOL® 1789], the “stability when exposed to UV irradiation” value in data set [2] is listed as “do not have an unlimited stability”.
